Where two headings read alike, the source gives them in different places.
What was measured:
H-460 (NSCLC, KRAS Q61H) = experiment: Murine xenograft tumor growth inhibition, H-460; type: in vivo, SCID mice; conditions: H-460 xenograft; orally 50, 100, or 200 mg/kg OD for 11-14 days; all doses
Protocol: (§1) Voruciclib is an oral inhibitor of CDKs 9, 4, 6, and 1 currently being tested in Phase 1B clinical trials for B-cell malignancies and acute myeloid leukemia. Voruciclib inhibition of CDK9 leads to decreased expression of transcriptional targets of RNA Pol II, such as Mcl1 and MYC. To test whether Voruciclib could be effective in cancers driven by dysregulated KRAS-MYC signaling, ˜20 cancer cell lines with KRAS mutations (G12A, G12C, G12D, G12S, G12V, G13C, G13D, Q61H) were treated in preclinical studies with Voruciclib. MTS and Cell Titer Glo assays were used to monitor growth in vitro. […] To investigate MYC protein stability, MIA PACA-2 (G12C) cells were treated with 4 μM Voruciclib for 5-240 min, followed by SDS-PAGE and Western Blotting analysis with α-MYC and α-pSer62-MYC antibodies. […] A 60% decrease in pSer62 was observed after 5 min that reached 80% by 60 min. […] The ability of Voruciclib to inhibit tumor growth in vivo was also tested in murine xenograft models. KRAS mutant human cancer cells HCT-116 (CRC, KRAS G13D), SW-480 (CRC, KRAS G12V), and H-460 (NSCLC, KRAS Q61H) were injected subcutaneously into SCID mice. Once tumors reached 5-10 mm in diameter, Voruciclib or vehicle were administered orally at 50, 100, or 200 mg/kg OD for 11-14 days. Tumors were measured every 2-3 days, and growth inhibition relative to control was calculated. […]

HCT-116 (CRC, KRAS G13D) = experiment: Murine xenograft tumor growth inhibition, HCT-116; type: in vivo, SCID mice; conditions: HCT-116 xenograft; orally 50, 100, or 200 mg/kg OD for 11-14 days; all doses
Protocol: as §1

[1] = SCID, mouse, in vivo, po, 100 mg/kg
Protocol: Animals were randomized into 2 groups when tumors reached 100 mm diameter. Group A assigned single dosing. […] Drug concentration was measured in tumor and plasma after last dose at the following time points: 0, 4, 8, 24, 48, 72 hrs. […] Concentration of voruciclib in plasma is in units of μg/ml and in μg/g for tumors.

MIA Paca-2 cells = experiment: Voruciclib-sensitive phosphoproteome (TMT, LC-MS/MS); type: cell-based; conditions: voruciclib 4 μM over time
Protocol: Cells were treated with voruciclib (4 μM) over time. (FIG. 31A) Summary of peptide quantification after TMT labelling and analysis by LC-MS/MS. (FIG. 31B) Volcano plots of phosphosites (log 2 fold change vs −log 10 p-value).
To define the CDK9-dependent phosphoproteome, cells are treated for a short time period with VOR followed by harvesting of the cells, IMAC enrichment, 16-plex isobaric tagging, and analysis by LC/MS/MS. A time course or different doses or drug combinations for the conditions can be performed. This experiment provides insight into novel CDK9 substrates and inroads into possible therapeutic areas for CDK9 inhibition by VOR.

[2] = PK of voruciclib, 2 weeks of daily dosing followed by 1 week without dosing in a 21-day cycle (Table 3); type: in vivo, human; conditions: for Accumulation Ratio (AUC0-24 h): Day 13/Day 1, 2 weeks daily dosing/1 week off; for AUC(0-inf) / Cmax / half-life / AUC(0-t) / Vd/F / Tmax: human, plasma, oral; for Vd/F: read-out: Vz/F; for Tmax: median
Description: Voruciclib half life is designated as t½ in the tables (expressed in hours).
Voruciclib volume of distribution is designated as Vz/F (expressed in liters).

[3] = 75 mg, Day 1, 2 weeks daily dosing/1 week off, mean
[4] = 75 mg, Day 13, 2 weeks daily dosing/1 week off, mean
[5] = 150 mg, Day 1, 2 weeks daily dosing/1 week off, mean
[6] = 150 mg, Day 13, 2 weeks daily dosing/1 week off, mean
[7] = 300 mg, Day 1, 2 weeks daily dosing/1 week off, mean
[8] = 300 mg, Day 13, 2 weeks daily dosing/1 week off, n = 1
[9] = 600 mg, Day 1, 2 weeks daily dosing/1 week off, mean
[10] = 600 mg, Day 13, 2 weeks daily dosing/1 week off, mean
[11] = 850 mg, Day 1, 2 weeks daily dosing/1 week off, mean
[12] = 850 mg, Day 13, 2 weeks daily dosing/1 week off, mean

CN1CC[C@@H](c2c(O)cc(O)c3c(=O)cc(-c4ccc(C(F)(F)F)cc4Cl)oc23)[C@@H]1CO [Voruciclib, (+)-trans-2-(2-Chloro-4-trifluoromethylphenyl)-5,7-dihydroxy-8-(2-hydroxymethyl-1-methylpyrrolidin-3-yl)-chromen-4-one]
tumor growth inhibition relative to control (H-460 (NSCLC, KRAS Q61H)): > 50%
tumor growth inhibition relative to control (HCT-116 (CRC, KRAS G13D)): > 50%
voruciclib level in tumor at 8 hours compared to 24 hours post dosing [1]: > 5 fold
phosphoproteome change (MIA Paca-2 cells): rapid downregulation of phosphoproteins controlling transcription of MYC
Accumulation Ratio (AUC0-24 h) ([2]; 75 mg, mean): 2.937
Accumulation Ratio (AUC0-24 h) ([2]; 150 mg, mean): 2.129
Accumulation Ratio (AUC0-24 h) ([2]; 300 mg, mean): 2.602
Accumulation Ratio (AUC0-24 h) ([2]; 600 mg, mean): 2.064
Accumulation Ratio (AUC0-24 h) ([2]; 850 mg, mean): 3.139
AUC(0-inf) [2, 3]: 4210 ng·h/mL
Cmax [2, 3]: 193 ng/mL
half-life [2, 3]: 21.7 h
AUC(0-t) ([2]; 75 mg, Day 1, 2 weeks daily dosing/1 week off, mean, read-out: AUC0-24): 2280 ng·h/mL
AUC(0-t) ([2]; 75 mg, Day 1, 2 weeks daily dosing/1 week off, mean, read-out: AUC0-t): 2280 ng·h/mL
Vd/F [2, 3]: 1280 L
Tmax ([2]; 75 mg, Day 1, 2 weeks daily dosing/1 week off): 4 h
AUC(0-inf) [2, 4]: 8660 ng·h/mL
Cmax [2, 4]: 313 ng/mL
half-life [2, 4]: 16.9 h
AUC(0-t) ([2]; 75 mg, Day 13, 2 weeks daily dosing/1 week off, mean, read-out: AUC0-24): 5290 ng·h/mL
AUC(0-t) ([2]; 75 mg, Day 13, 2 weeks daily dosing/1 week off, mean, read-out: AUC0-t): 5290 ng·h/mL
Vd/F [2, 4]: 349 L
Tmax ([2]; 75 mg, Day 13, 2 weeks daily dosing/1 week off): 4 h
AUC(0-inf) [2, 5]: 15800 ng·h/mL
Cmax [2, 5]: 456 ng/mL
half-life [2, 5]: 32.5 h
AUC(0-t) ([2]; 150 mg, Day 1, 2 weeks daily dosing/1 week off, mean, read-out: AUC0-24): 6980 ng·h/mL
AUC(0-t) ([2]; 150 mg, Day 1, 2 weeks daily dosing/1 week off, mean, read-out: AUC0-t): 6980 ng·h/mL
Vd/F [2, 5]: 1650 L
Tmax ([2]; 150 mg, Day 1, 2 weeks daily dosing/1 week off): 4 h
AUC(0-inf) [2, 6]: 28200 ng·h/mL
Cmax [2, 6]: 896 ng/mL
half-life [2, 6]: 26.1 h
AUC(0-t) ([2]; 150 mg, Day 13, 2 weeks daily dosing/1 week off, mean, read-out: AUC0-24): 13000 ng·h/mL
AUC(0-t) ([2]; 150 mg, Day 13, 2 weeks daily dosing/1 week off, mean, read-out: AUC0-t): 13000 ng·h/mL
Vd/F [2, 6]: 459 L
Tmax ([2]; 150 mg, Day 13, 2 weeks daily dosing/1 week off): 4 h
AUC(0-inf) [2, 7]: 148000 ng·h/mL
Cmax [2, 7]: 1000 ng/mL
half-life [2, 7]: 138 h
AUC(0-t) ([2]; 300 mg, Day 1, 2 weeks daily dosing/1 week off, mean, read-out: AUC0-24): 15700 ng·h/mL
AUC(0-t) ([2]; 300 mg, Day 1, 2 weeks daily dosing/1 week off, mean, read-out: AUC0-t): 15700 ng·h/mL
Vd/F [2, 7]: 3980 L
Tmax ([2]; 300 mg, Day 1, 2 weeks daily dosing/1 week off): 6 h
Cmax ([2]; 300 mg, Day 13, 2 weeks daily dosing/1 week off, mean): 2100 ng/mL
AUC(0-t) ([2]; 300 mg, Day 13, 2 weeks daily dosing/1 week off, mean, read-out: AUC0-24): 40400 ng·h/mL
AUC(0-t) ([2]; 300 mg, Day 13, 2 weeks daily dosing/1 week off, mean, read-out: AUC0-t): 40400 ng·h/mL
Tmax ([2]; 300 mg, Day 13, 2 weeks daily dosing/1 week off): 12 h
AUC(0-inf) [2, 8]: 59300 ng·h/mL
half-life [2, 8]: 16.2 h
Vd/F [2, 8]: 185 L
AUC(0-inf) [2, 9]: 61500 ng·h/mL
Cmax [2, 9]: 1630 ng/mL
half-life [2, 9]: 32.5 h
AUC(0-t) ([2]; 600 mg, Day 1, 2 weeks daily dosing/1 week off, mean, read-out: AUC0-24): 24800 ng·h/mL
AUC(0-t) ([2]; 600 mg, Day 1, 2 weeks daily dosing/1 week off, mean, read-out: AUC0-t): 24800 ng·h/mL
Vd/F [2, 9]: 1550 L
Tmax ([2]; 600 mg, Day 1, 2 weeks daily dosing/1 week off): 4 h
AUC(0-inf) [2, 10]: 86000 ng·h/mL
Cmax [2, 10]: 2940 ng/mL
half-life [2, 10]: 19 h
AUC(0-t) ([2]; 600 mg, Day 13, 2 weeks daily dosing/1 week off, mean, read-out: AUC0-24): 43500 ng·h/mL
AUC(0-t) ([2]; 600 mg, Day 13, 2 weeks daily dosing/1 week off, mean, read-out: AUC0-t): 43500 ng·h/mL
Vd/F [2, 10]: 394 L
Tmax ([2]; 600 mg, Day 13, 2 weeks daily dosing/1 week off): 4 h
AUC(0-inf) [2, 11]: 109000 ng·h/mL
Cmax [2, 11]: 1730 ng/mL
half-life [2, 11]: 50 h
AUC(0-t) ([2]; 850 mg, Day 1, 2 weeks daily dosing/1 week off, mean, read-out: AUC0-24): 31400 ng·h/mL
AUC(0-t) ([2]; 850 mg, Day 1, 2 weeks daily dosing/1 week off, mean, read-out: AUC0-t): 31400 ng·h/mL
Vd/F [2, 11]: 2150 L
Tmax ([2]; 850 mg, Day 1, 2 weeks daily dosing/1 week off): 9 h
AUC(0-inf) [2, 12]: 170000 ng·h/mL
Cmax [2, 12]: 4450 ng/mL
half-life [2, 12]: 22.4 h
AUC(0-t) ([2]; 850 mg, Day 13, 2 weeks daily dosing/1 week off, mean, read-out: AUC0-24): 83900 ng·h/mL
AUC(0-t) ([2]; 850 mg, Day 13, 2 weeks daily dosing/1 week off, mean, read-out: AUC0-t): 83900 ng·h/mL
Vd/F [2, 12]: 315 L
Tmax ([2]; 850 mg, Day 13, 2 weeks daily dosing/1 week off): 5 h

Source: US20240016781A1, “TREATMENT OF KRAS MUTANT CANCERS” (MEI Pharma, Inc., priority 2020, published 2024)
